Measured values reported in patent US12215090B2, “Agents and methods for treating dysproliferative diseases” (Memorial Sloan-kettering Cancer Center, priority 2018, dated 2025).
Read-outs that look alike come from different tables or passages of the source.

Experiments:
Type in all cases: cell-based
[1] = test system: KOPTK1 cells, a murine T-cell ALL cell line; experiment: cell viability assay, KOPTK1 cells; conditions: Mus musculus
DHL6 cells = experiment: cell viability assay, DHL6 cells
Excerpt: (§1) FIGS. 1A, 1B, 1C, and 1D show the activity of compounds of the invention, compared to (−)-CR31B and (+)-CR31B in cell viability assays using (A) DHL6 cells, (B) Jurkat cells, (C) DoHH2 cells, and (D) LY8 cells. […] The following table reports the IC50s (in nM) for each lymphoma and leukemia cell type.

Jurkat cells = experiment: cell viability assay, Jurkat cells
Excerpt: as §1

DoHH2 cells = experiment: cell viability assay, DoHH2 cells
Excerpt: as §1

LY8 cells = experiment: cell viability assay, LY8 cells
Excerpt: as §1

DHL8 cells = experiment: cell viability assay, DHL8 cells
Excerpt: as §1

[2] = test system: MOLT-4 (human acute lymphoblastic leukemia [ALL]); experiment: cell viability assay, MOLT-4 cancer cells; conditions: MOLT-4 T-ALL cells, 72 hours of exposure, cell titer glow reagent
Description: (§2) The biological activity of compounds of the invention was evaluated in several assays. In a cell viability assay using cancer and normal cells lines MOLT-4 (human acute lymphoblastic leukemia [ALL]) and MRC-5 (human lung fibroblast), respectively, cell viability was assessed after 72 hours of exposure to a range of concentrations, using cell titer glow reagent from Promega to assess viability.

[3] = test system: MRC-5 (human lung fibroblast); experiment: cell viability assay, MRC-5 normal cells; conditions: MRC5, MRC-5 non-cancer cells, 72 hours of exposure, cell titer glow reagent
Description: as §2

COc1cc(OC)c2c(c1)OC1(c3ccc(O)cc3)C(c3ccccc3)C(C(N)=O)C(O)C21O (racemic) [Racemic mixture of Compounds 8 and 9, 1,8b-dihydroxy-3a-(4-hydroxyphenyl)-6,8-dimethoxy-3-phenyl-2,3-dihydro-1H-cyclopenta[b]benzofuran-2-carboxamide]
IC50 [1]: 10 nM | IC50 (DHL6 cells): 947 nM | IC50 (Jurkat cells; Homo sapiens): 1730 nM | IC50 (DoHH2 cells; Homo sapiens, DOHH-2): 987 nM | IC50 (LY8 cells): 2910 nM | IC50 (DHL8 cells): 1040 nM

CONC(=O)[C@H]1[C@@H](O)[C@@]2(O)c3c(OC)cc(OC)cc3O[C@@]2(c2ccc(O)cc2)[C@@H]1c1ccccc1 [Compound 1, (1R,2R,3S,3aR,8bS)-1,8b-dihydroxy-3a-(4-hydroxyphenyl)-N,6,8-trimethoxy-3-phenyl-2,3-dihydro-1Hcyclopenta[b]benzofuran-2-carboxamide]
IC50 [2]: 5.3 nM | IC50 [3]: > 1000 nM | IC50 [1]: 50 nM | IC50 (DHL6 cells): 51.5 nM | IC50 (Jurkat cells; Homo sapiens): 63 nM | IC50 (DoHH2 cells; Homo sapiens, DOHH-2): 36.7 nM | IC50 (LY8 cells): 38.9 nM | IC50 (DHL8 cells): 74.9 nM

(+)-CR31B [reference compound]
IC50 (DHL6 cells): ~4300 nM | IC50 (Jurkat cells): ~3110 nM | IC50 (DoHH2 cells): 2530 nM | IC50 (LY8 cells): 16500 nM | IC50 (DHL8 cells): 7480 nM

(−)-CR31B [reference compound]
IC50 (DHL6 cells): 7.62 nM | IC50 (Jurkat cells): 6.42 nM | IC50 (DoHH2 cells): 7.3 nM | IC50 (LY8 cells): 5.93 nM | IC50 (DHL8 cells): 7.21 nM
